For 6 compounds, MIC results are on record in DBAASP.

Usually MIC stands for the least concentration at which growth counts as inhibited.

Assay in all cases: ≥ marks a high value that may be exact or a test limit, other limits are often not marked, values filed in µg/mL are converted to µM
Experiment [1] deals with Pseudomonas aeruginosa.
Experiment [2] deals with Escherichia coli.
Experiment [3] has as its system Staphylococcus aureus.

In brackets after ≈: the same amount, converted by molar mass. Several values for one entry are separate records, joined by “and”; a condition that tells them apart may be missing. Equal entries are not always repeated.

Take `CSCC[C@H](NC(=O)[C@H](C)NC(=O)[C@H](CCC(=O)O)NC(=O)CNC(=O)[C@@H](NC(=O)[C@H](Cc1ccccc1)NC(=O)[C@H](C)NC(=O)[C@H](CCCCN)NC(=O)CNC(=O)[C@H](Cc1ccccc1)NC(=O)[C@H](CCCN=C(N)N)NC(=O)[C@H](CCCCN)NC(=O)[C@H](C)NC(=O)[C@H](CO)NC(=O)[C@H](Cc1cnc[nH]1)NC(=O)[C@H](CC(C)C)NC(=O)[C@H](Cc1ccccc1)NC(=O)[C@H](CCCCN)NC(=O)CNC(=O)[C@H](CC(C)C)NC(=O)CN)C(C)C)C(=O)N[C@@H](CC(N)=O)C(=O)N[C@@H](CO)C(N)=O` [GLGKFLHSAKRFGKAFVGEAMNS]: the values for the MIC in experiment [1], in experiment [2] and in experiment [3] were more than 75 µM, 75 µM (≈ 184 µg/mL) and more than 75 µM, respectively.

For the compound `CC[C@H](C)[C@H](N)C(=O)N[C@@H](CC(N)=O)C(=O)N[C@@H](Cc1c[nH]c2ccccc12)C(=O)N[C@@H](CCCCN)C(=O)N[C@@H](CCCCN)C(=O)N[C@H](C(=O)N[C@@H](C)C(=O)N[C@@H](CO)C(=O)N[C@H](C(=O)NCC(=O)N[C@@H](CCCCN)C(=O)N[C@@H](CCC(=O)O)C(=O)N[C@H](C(=O)N[C@@H](CC(C)C)C(=O)N[C@@H](CCCCN)C(=O)N[C@@H](C)C(=O)N[C@@H](CC(C)C)C(N)=O)C(C)C)[C@@H](C)CC)[C@@H](C)CC` [INWKKIASIGKEVLKAL], the MIC in experiment [1] is 86.6 µM (≈ 165 µg/mL); in experiment [2] it was 7.3 µM and 5 µM and 2.5 µM; in experiment [3], 25.8 µM (≈ 49.3 µg/mL).

As for `CC[C@H](C)[C@H](NC(=O)[C@H](CCCCN)NC(=O)[C@H](C)NC(=O)CNC(=O)[C@@H](NC(=O)[C@H](CCCCN)NC(=O)[C@@H](NC(=O)[C@H](CCCCN)NC(=O)[C@H](C)NC(=O)CNC(=O)[C@H](Cc1c[nH]c2ccccc12)NC(=O)[C@H](CCCCN)NC(=O)[C@@H](NC(=O)[C@H](CCCCN)NC(=O)[C@H](C)NC(=O)CNC(=O)[C@@H](NC(=O)[C@@H](N)CCCCN)[C@@H](C)CC)[C@@H](C)CC)[C@@H](C)CC)[C@@H](C)CC)C(N)=O` [KIGAKIKWGAKIKIGAKI], the MIC in experiment [1], in experiment [2] and in experiment [3] was 4.16 µM (≈ 8 µg/mL) each time.

Regarding `CC[C@H](C)[C@H](NC(=O)[C@H](C)NC(=O)CNC(=O)[C@H](CCCCN)NC(=O)[C@@H](NC(=O)[C@H](CCCCN)NC(=O)[C@@H](NC(=O)[C@H](C)NC(=O)CNC(=O)[C@H](CCCCN)NC(=O)[C@H](Cc1c[nH]c2ccccc12)NC(=O)[C@H](CCCCN)NC(=O)[C@@H](NC(=O)[C@H](C)NC(=O)CNC(=O)[C@H](CCCCN)NC(=O)[C@@H](NC(=O)[C@@H](N)CCCCN)[C@@H](C)CC)[C@@H](C)CC)[C@@H](C)CC)[C@@H](C)CC)C(N)=O` [KIKGAIKWKGAIKIKGAI], the figures for the MIC in experiment [1], in experiment [2] and in experiment [3] were 8.32 µM (≈ 16 µg/mL), 4.16 µM (≈ 8 µg/mL) and 8.32 µM (≈ 16 µg/mL), respectively.

The compound `CC[C@H](C)[C@H](NC(=O)[C@H](Cc1ccccc1)NC(=O)[C@H](CO)NC(=O)[C@H](CCCCN)NC(=O)[C@H](Cc1c[nH]c2ccccc12)NC(=O)[C@@H](N)CCCCN)C(=O)N[C@@H](CCCCN)C(=O)N[C@@H](CCCCN)C(=O)N[C@@H](CC(C)C)C(=O)N[C@H](C(=O)N[C@@H](CO)C(=O)N[C@@H](CCCCN)C(=O)N[C@@H](Cc1ccccc1)C(=O)N[C@@H](CC(C)C)C(=O)N[C@@H](Cc1cnc[nH]1)C(=O)N[C@@H](CO)C(=O)N[C@@H](C)C(=O)N[C@@H](CCCCN)C(=O)N[C@@H](CCCCN)C(=O)N[C@@H](CC(N)=O)C(N)=O)[C@@H](C)O` [KWKSFIKKLTSKFLHSAKKN] registered an MIC in experiment [1] of 2.58 µM (≈ 6.25 µg/mL).

Regarding `CC[C@H](C)[C@H](NC(=O)[C@H](Cc1c[nH]c2ccccc12)NC(=O)[C@H](CCCN=C(N)N)NC(=O)[C@H](CCC(N)=O)NC(=O)[C@@H](NC(=O)[C@H](Cc1c[nH]c2ccccc12)NC(=O)[C@H](CCCN=C(N)N)NC(=O)[C@@H](N)CCCN=C(N)N)C(C)C)C(=O)N[C@@H](CCCN=C(N)N)C(=O)N[C@@H](CCCN=C(N)N)C(=O)N[C@@H](Cc1c[nH]c2ccccc12)C(=O)N[C@@H](CCCN=C(N)N)C(=O)N[C@@H](CCCCN)C(=O)N[C@@H](Cc1c[nH]c2ccccc12)C(=O)N[C@H](C(=O)O)C(C)C` [RRWVQRWIRRWRKWV], the MIC in experiment [1] and in experiment [3] was 20 µM (≈ 45.4 µg/mL) throughout.
